{"source": "patent US9133457B2", "about": "“Methods of incorporating amino acid analogs into proteins” (California Institute of Technology, priority 2004, dated 2015)", "key": {"[1]": {"biological_target": "T1, mu-yPheRS (modified yeast PheRS, Thr415Gly) (Saccharomyces cerevisiae, UniProt P15625, T415G)", "T1 construct": "made in house", "T1 sequence (P15624 whole entry)": "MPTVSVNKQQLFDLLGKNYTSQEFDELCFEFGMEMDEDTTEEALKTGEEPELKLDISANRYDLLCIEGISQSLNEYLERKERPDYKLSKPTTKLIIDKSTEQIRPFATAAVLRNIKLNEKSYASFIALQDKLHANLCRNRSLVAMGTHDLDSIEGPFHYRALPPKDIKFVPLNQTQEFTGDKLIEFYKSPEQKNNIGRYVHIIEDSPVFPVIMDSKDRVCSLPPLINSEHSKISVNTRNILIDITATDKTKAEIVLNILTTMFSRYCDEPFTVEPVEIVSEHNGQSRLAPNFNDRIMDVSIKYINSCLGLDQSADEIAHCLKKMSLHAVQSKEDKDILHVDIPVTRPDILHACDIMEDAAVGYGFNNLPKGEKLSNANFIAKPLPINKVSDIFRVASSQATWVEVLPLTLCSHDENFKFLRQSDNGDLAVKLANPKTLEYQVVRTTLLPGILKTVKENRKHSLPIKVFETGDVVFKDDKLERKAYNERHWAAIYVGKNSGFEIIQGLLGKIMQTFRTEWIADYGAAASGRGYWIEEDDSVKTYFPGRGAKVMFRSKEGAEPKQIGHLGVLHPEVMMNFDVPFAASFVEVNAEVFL", "T1 sequence (P15625 whole entry T415G)": "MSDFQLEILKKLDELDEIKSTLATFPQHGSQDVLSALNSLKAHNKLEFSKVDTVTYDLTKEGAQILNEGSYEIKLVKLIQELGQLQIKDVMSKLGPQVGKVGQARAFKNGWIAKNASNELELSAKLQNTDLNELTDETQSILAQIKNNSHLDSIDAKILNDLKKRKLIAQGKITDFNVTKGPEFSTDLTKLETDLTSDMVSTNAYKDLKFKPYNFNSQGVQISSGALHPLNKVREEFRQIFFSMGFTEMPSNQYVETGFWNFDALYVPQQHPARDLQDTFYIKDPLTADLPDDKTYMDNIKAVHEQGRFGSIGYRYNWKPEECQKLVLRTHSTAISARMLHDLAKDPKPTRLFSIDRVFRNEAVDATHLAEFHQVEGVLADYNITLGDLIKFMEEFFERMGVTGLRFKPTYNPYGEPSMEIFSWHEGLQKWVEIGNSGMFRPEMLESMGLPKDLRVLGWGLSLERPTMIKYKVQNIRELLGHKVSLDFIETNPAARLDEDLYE", "assay": "adenosine triphosphate-pyrophosphate exchange assay (amino acid activation)", "type": "biochemical", "conditions": "larger than Phe", "description": "The modified yeast PheRS (mu-yPheRS) was prepared by introduction of a Thr415Gly mutation in the α-subunit of the synthetase (Datta el al., J. Am. Chem. Soc. 124: 5652, 2002). The kinetics of activation of Nal and Phe by mu-yPheRS were analyzed in vitro via the adenosine triphosphate-pyrophosphate exchange assay."}, "[2]": {"biological_target": "T2, E. coli leucyl-tRNA synthetase (LeuRS) (Escherichia coli, UniProt P07813)", "T2 construct": "endogenous in cells; host or cells: E. coli expression strain (Phe/Leu auxotroph) carrying ytRNAPheCAA and modified yeast PheRS", "T2 sequence (P07813 whole entry)": "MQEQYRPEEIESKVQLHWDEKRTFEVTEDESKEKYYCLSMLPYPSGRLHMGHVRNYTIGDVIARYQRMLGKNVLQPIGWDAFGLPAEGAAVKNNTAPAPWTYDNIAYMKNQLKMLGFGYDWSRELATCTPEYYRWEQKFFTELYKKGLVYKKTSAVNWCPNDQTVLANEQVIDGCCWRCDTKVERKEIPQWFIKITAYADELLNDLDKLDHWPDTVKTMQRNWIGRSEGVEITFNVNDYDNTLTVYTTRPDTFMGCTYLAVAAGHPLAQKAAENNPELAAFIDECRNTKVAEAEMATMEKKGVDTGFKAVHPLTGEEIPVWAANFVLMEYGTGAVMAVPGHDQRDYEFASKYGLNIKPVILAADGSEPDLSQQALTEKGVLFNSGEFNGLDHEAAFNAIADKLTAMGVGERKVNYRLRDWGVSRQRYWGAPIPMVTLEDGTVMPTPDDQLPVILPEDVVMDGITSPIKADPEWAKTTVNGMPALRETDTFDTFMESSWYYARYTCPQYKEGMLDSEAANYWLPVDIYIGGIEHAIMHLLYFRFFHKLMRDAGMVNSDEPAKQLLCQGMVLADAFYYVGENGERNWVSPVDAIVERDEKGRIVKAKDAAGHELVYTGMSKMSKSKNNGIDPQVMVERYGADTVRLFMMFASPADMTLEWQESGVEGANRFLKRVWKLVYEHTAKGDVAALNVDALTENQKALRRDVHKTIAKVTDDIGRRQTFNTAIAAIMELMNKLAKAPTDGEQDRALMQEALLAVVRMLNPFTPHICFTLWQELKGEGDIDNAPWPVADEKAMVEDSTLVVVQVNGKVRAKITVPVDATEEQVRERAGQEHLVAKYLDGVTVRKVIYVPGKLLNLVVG", "assay": "incorporation of Nal into mDHFR at Leu codon UUG, effect of LeuRS inhibitor", "type": "cell-based", "description": "In this example, multiple-site-specific incorporation of an unnatural amino acid into murine dihydrofolate reductase (mDHFR) in response to a sense codon was realized by use of an E. coli strain outfitted with a yeast transfer RNA (ytRNA^pheCAA) capable of Watson-Crick base-pairing with the leucine (Leu) codon UUG. ytRNA^pheCAA was charged with L-3-(2-naphthyl)alanine (Nal) by a co-expressed modified yeast phenylalanine tRNA synthetase. See schematic diagram in FIG. 3.\nIncomplete occupancy of the UUG codon by Nal is due at least in part to competition with leucine-charged E. coli tRNA^Leus. In an attempt to reduce competition by E. coli tRNA^Leus, use of a mutant E. coli strain lacking tRNA^LeuCAA and addition of an E. coli leucyl-tRNA synthetase (LeuRS) inhibitor were tested. A Phe/Leu double auxotrophic strain derived from the tRNA^LeuCAA-deficient strain XA106 (CGSC at Yale) was tested for incorporation of Nal at the UUG codon.\nReplacement of Leu by Nal was detected in MALDI mass spectra of tryptic fragments of mDHFR (FIG. 4). […] Furthermore, Nal incorporation was not detected when UUG was mutated to UUA in Peptide 3. No signal corresponding to Peptide 4CUG (Nal) was detected, whereas that corresponding to Peptide 4CUG was detected at 904.54 mass units. […]"}, "E. coli strain (K10-F6)": {"tested_on": "E. coli strain (K10-F6)", "assay": "incorporation of Nal into mDHFR at Phe codons UUU/UUC (amino acid analysis, MALDI of tryptic digests)", "type": "cell-based", "description": "In this construct, four of the Phe residues of mDHFR are encoded by UUC codons, five by UUU. A full-length copy of the mu-yPheRS gene, under control of a constitutive tac promoter, was inserted into pQE16. […] E. coli transformants harboring these two plasmids were incubated in Phe-depleted minimal medium supplemented with 3 mM Nal and were then treated with 1 mM IPTG to induce expression of mDHFR. Although the E. coli strain (K10-F6) used in this study is a Phe auxotroph, (see Furter, supra) a detectable level of mDHFR was expressed even under conditions of nominal depletion of Phe, probably because of release of Phe through turnover of cellular proteins. In negative control experiments, mDHFR was expressed in the absence of either ytRNA^PheAAA or mu-yPheRS. […] For mDHFR isolated from the strain harboring the heterologous pair, amino acid analysis indicated replacement of 4.4 of the 9 Phe residues by Nal.\nTryptic digests of mDHFR were analyzed to determine the occupancy of individual Phe sites. Peptide 1UUU (residues 184-191, […], SEQ ID NO: 1) contains a Phe residue encoded as UUU, whereas peptides 2UUC (residues 62-70, […], SEQ ID NO: 2) and 3UUC (residues 26-39, […], SEQ ID NO: 3) each contain a Phe residue encoded as UUC. In the absence of Nal, peptide 1UUU was detected with a monoisotopic mass of 1105.55 Da, in accord with its theoretical mass (FIG. 2A). […] As described earlier, each substitution of Nal for Phe leads to a mass increase of 50.06 Da; the observed shift in mass is thus consistent with replacement of Phe by Nal in response to the UUU codon. Liquid chromatography-tandem mass spectrometry (LC/MS/MS) confirmed this assignment.\nSimilar analyses were conducted for peptides 2UUC and 3UUC. In the absence of added Nal, the observed masses of peptides 2UUC and 3UUC are 1135.61 (FIG. 2A) and 1682.89 Da (FIG. 2D), respectively, as expected. […] Nal incorporation thus appears to be rare at UUC codons under the conditions used here for protein expression.\nThere is at least a formal possibility that the observed codon-biased incorporation of Nal might be dependent on codon context rather than, or in addition to, codon identity. MALDI sampling errors are also possible. To test these possibilities, a mutant mDHFR gene was prepared by mutating the UUU codon in peptide 1UUU to UUC, and the UUC codon in peptide 3UUC to UUU. In the resulting peptide 1UUC, the signal indicating incorporation of Nal was only slightly above background (FIG. 2C), whereas for peptide 3UUU, Nal is readily detected (FIG. 2F). Nal incorporation is unambiguously codon-biased to UUU."}, "Escherichia coli": {"tested_on": "Escherichia coli", "conditions": "cited from earlier work"}, "[3]": {"biological_target": "T2, E. coli leucyl-tRNA synthetase (LeuRS)", "conditions": "in vitro; cited from earlier work"}, "[4]": {"conditions": "degree similar to Ceredase; cited from earlier work"}, "[5]": {"conditions": "cited from earlier work"}, "[6]": {"conditions": "modified using conventional amine-PEGylation; cited from earlier work"}}, "note": "Like-named read-outs stand apart in the source and are kept apart here."}
{"molecule": "N[C@@H](Cc1ccc2ccccc2c1)C(=O)O", "note": "[Nal, L-3-(2-naphthyl)alanine]", "values": [{"measurement": "specificity constant relative to that for Phe", "setting": "[1]", "value": 8, "unit": "fold"}, {"measurement": "re-assignment of the UUG codon to Nal", "setting": "[2]; ytRNA^PheCAA and modified yeast PheRS, mass spectrometry of tryptic digests", "value": "partially re-assigned"}, {"measurement": "Nal incorporation at the UUU codon", "setting": "E. coli strain (K10-F6); MALDI signal intensities, peptide 1UUU", "value": "dominant"}, {"measurement": "Nal incorporation at UUC codons", "setting": "E. coli strain (K10-F6); MALDI, peptides 2UUC and 3UUC", "value": "rare"}, {"measurement": "Phe residues of mDHFR replaced by Nal", "setting": "E. coli strain (K10-F6); of the 9 Phe residues, strain harboring ytRNA^PheAAA and mu-yPheRS, 3 mM Nal, amino acid analysis", "value": 4.4}, {"measurement": "incorporation of Nal into mDHFR", "setting": "E. coli strain (K10-F6); without ytRNA^PheAAA or mu-yPheRS, amino acid analysis", "value": "no incorporation"}]}
{"molecule": "CC1(C)S[C@@H]2[C@H](NC(=O)[C@H](N)c3ccccc3)C(=O)N2[C@H]1C(=O)O", "note": "[ampicillin]", "values": [{"measurement": "IC50 of cells", "setting": "Escherichia coli; SctRNAGlnCUA coexpressed with ScGlnRS", "value": "about 500 μg/mL"}, {"measurement": "IC50 of cells", "setting": "Escherichia coli; only SctRNAGlnCUA expressed", "value": 20, "unit": "µg/mL"}]}
{"molecule": "CN(C)CC(N)C(=O)O", "note": "(racemic) [AZL, 4-Aza-DL-leucine]", "values": [{"measurement": "inhibition of E. coli LeuRS", "setting": "[3]", "value": "competitive inhibitor"}, {"measurement": "effect on occupancy of the UUG codon by Nal", "setting": "[2]; 1 mM AZL in the media", "value": "enhanced occupancy"}]}
{"molecule": "Cerezyme: recombinant analogue of the human enzyme β-Glucocerebrosidase, imiglucerase for injection (protein, UniProt P04062 40-536, looked up, variant R495H, imiglucerase, recombinant analogue of the human enzyme β-Glucocerebrosidase, imiglucerase for injection) Lysosomal acid …: ARPCIPKSFGYSSVVCVCNATYCDSFDPPTFPALGTFSRYESTRSGRRMELSMGPIQANHTGTGLLLTLQPEQKFQKVKGFGGAMTDAAALNILALSPPAQNLLLKSYFSEEGIGYNIIRVPMASCDFSIRTYTYADTPDDFQLHNFSLPEEDTKLKIPLIHRALQLAQRPVSLLASPWTSPTWLKTNGAVNGKGSLKGQPGDIYHQTWARYFVKFLDAYAEHKLQFWAVTAENEPSAGLLSGYPFQCLGFTPEHQRDFIARDLGPTLANSTHHNVRLLMLDDQRLLLPHWAKVVLTDPEAAKYVHGIAVHWYLDFLAPAKATLGETHRLFPNTMLFASEACVGSKFWEQSVRLGSWDRGMQYSHSIITNLLYHVVGWTDWNLALNPEGGPNWVRNFVDSPIIVDITKDTFYKQPMFYHLGHFSKFIPEGSQRVGLVASQKNDLDAVALMHPDGSAVVVVLNRSSKDVPLTIKDPAVGFLETISPGYSIHTYLWHRQ", "values": [{"measurement": "clinical effect", "setting": "[4]", "value": "improved anemia and thrombocytopenia, reduced spleen and liver size, and decreased cachexia"}, {"measurement": "time to steady-state enzymatic activity", "setting": "[5]; during one-hour intravenous infusions", "value": "≤ 30", "unit": "min"}, {"measurement": "plasma clearance, mean±S.D.", "setting": "[5]; in vivo", "value": "14.5 ± 4.0", "unit": "mL/min/kg"}, {"measurement": "volume of distribution corrected for weight, mean±S.D.", "setting": "[5]; in vivo", "value": "0.12 ± 0.02", "unit": "L/kg"}]}
{"molecule": "GCSF: GCSF modified using conventional amine-PEGylation technologies (conjugate, UniProt P09919 31-207, looked up, amine PEGylation, GCSF modified using conventional amine-PEGylation technologies) Granulocyte …: TPLGPASSLPQSFLLKCLEQVRKIQGDGAALQEKLVSECATYKLCHPEELVLLGHSLGIPWAPLSSCPSQALQLAGCLSQLHSGLFLYQGLLQALEGISPELGPTLDTLQLDVADFATTIWQQMEELGMAPALQPTQGAMPAFASAFQRRAGGVLVASHLQSFLEVSYRVLRHLAQP", "values": [{"measurement": "reduction of bioactivity", "setting": "[6]", "value": "1,000 fold"}]}
